From US20080317674A1, “Method and Reagent for Measuring Nitroreductase Enzyme Activity” (priority 2004, published 2008)

What was measured:
nitroreductase (NTR) = molecular target: T1, nitroreductase (NTR) (Escherichia coli, UniProt P38489); assay: Nitroreductase gene reporter assay (adenoviral NF-κB NTR reporter, HeLa cells); assay type: cell-based; conditions: control sample cells containing the reporter, no agonist, vs mock transduced cells
T1 construct: expressed in transfected cells
Protocol: A reporter construct containing the NF-κB response element upstream of the NTR gene was constructed in pDC511 (Admax™). The reporter was packaged with AdS genomic DNA in helper cells, HEK293, and replication incompetent Adenovirus rescued.
HeLa cells were subcultured for twenty-four hours prior to viral transduction and incubated overnight at 37° C. in a humidified atmosphere of 5% CO2 in Dulbecco's Modified Eagles medium containing 10% foetal calf serum +2 mM L-glutamine. After the overnight incubation, the cells were detached from each flask with trypsin, pooled to produce a suspension of cells and the cell concentration determined. The HeLa cell suspension was mixed with virus at a predetermined multiplicity of infection (MOI) in a sufficient minimal volume of complete medium to cover the base of a tissue culture flask; typically 15 ml for 10^6 cells in a T75 cm^2 Costar flask. The cell/virus suspension was returned to the incubator and left overnight at 37° C. in a humidified atmosphere of 5% CO2. […] The cells were detached with trypsin and pooled to produce a suspension of transduced cells; the concentration of the cell suspension was determined and adjusted to 5.0×10^4 cells per ml. […] The fluorescence signal was monitored over time by means of a Tecan “Ultra” fluorimeter. All substrates were measured under identical conditions to avoid instrument artefacts. […]

nitroreductase = molecular target: T2, nitroreductase (Escherichia coli, UniProt P38489); assay: Live cell NTR assays, signal retention after fixation of cells; assay type: cell-based; conditions: live cell NTR assay, cells fixed
T2 construct: expressed in transfected cells
T2 sequence (P38489 whole entry): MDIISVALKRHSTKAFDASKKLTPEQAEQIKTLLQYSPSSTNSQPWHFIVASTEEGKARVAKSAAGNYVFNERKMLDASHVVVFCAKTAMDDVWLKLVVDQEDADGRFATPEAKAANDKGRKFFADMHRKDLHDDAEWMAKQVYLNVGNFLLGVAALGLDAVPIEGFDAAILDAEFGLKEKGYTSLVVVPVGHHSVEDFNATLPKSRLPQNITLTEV
Text: Further examples of the utility of nitro-substituted squaraine dyes (Compounds (2), (3) and (4)) as nitroreductase substrates are shown in live cell NTR assays, FIG. 5.

NTR enzyme = NTR enzyme (Escherichia coli, UniProt P38489); assay: Shift in absorption maximum after action of NTR upon a substrate; assay type: biochemical
Sequence of NTR enzyme (P38489 whole entry): as above
Protocol: Compound (8) in DMSO (1 mMol) (4 μl ) was diluted into PBS buffer (0.01M) (1.76 ml). The UV/Vis spectrum of the solution was measured. The substrate has an absorbance maximum at 682 nm AU=0.22. To the solution was added NADH (0.01M in PBS) (200 μl) and NTR enzyme (446 ng/ml, 37 μl) the mixture was leave to stand at room temperature for 30 mins. After this time, the absorbance spectrum was re-measured. A new absorbance maximum at 621 nm, AU=0.17 is observed.

T1 sequence (P38489 whole entry): as above

## CN1/C(=C\C2=C([O-])C(=C\C3=[N+](Cc4cc([N+](=O)[O-])cc([N+](=O)[O-])c4)c4ccccc4C3(C)C)/C2=O)C(C)(C)c2ccccc21 [Compound (1), 2-(1-methyl-3,3-dimethyl-2-indolinylidenemethyl)-4-(1-(3,5-dinitrobenzyl)-3,3-dimethyl-2-indolinylidenemethyl)cyclobutenediylium-1,3-diolate]
Nitroreductase (NTR)
  detection of basal transcriptional activity: not sensitive enough to detect this low level activity

## CC[n+]1c(/C=C2/C(=O)C(/C=C3\N(CCOCCOC)c4ccccc4C3(C)C)=C2[O-])sc2cc([N+](=O)[O-])ccc21 [Compound (4), 2-(3-ethyl-6-nitro-2-benzothiazolinylidenemethyl)-4-(1-(2-(2-methoxyethoxy)ethyl)-3,3-dimethyl-2-indolinylidenemethyl)cyclobutenediylium-1,3-diolate]
nitroreductase
  signal lost post-fixation: ~50%

## C[n+]1c(C=C2C(=O)C(C=C3N(CCCCS(=O)(=O)O)c4ccc(S(=O)(=O)O)cc4C3(C)C)=C2[O-])ccc2cc([N+](=O)[O-])ccc21 [Compound (8), 2-((3,3-dimethyl-5-sulfo-1-(4-sulfobutyl)-1,3-dihydro-2H-indol-2-ylidene)methyl)-4-((1-methyl-6-nitroquinolinium-2-yl)methylene)-3-oxocyclobut-1-en-1-olate]
NTR enzyme; NADH and NTR enzyme added, room temperature, 30 mins
  new absorbance maximum after action of NTR: 621 nm
NTR enzyme; at 621 nm, NADH and NTR enzyme added, room temperature, 30 mins
  absorbance at new maximum after action of NTR: 0.17 AU
NTR enzyme; before NTR, PBS buffer 0.01M
  absorbance maximum of substrate: 682 nm
NTR enzyme; before NTR, at 682 nm, PBS buffer
  absorbance at maximum of substrate: 0.22 AU
